Assay results reported in the supplement of paper PMC10627819.

How the values were obtained:
Assay in all cases: fitness (endpoint OD595 vs no drug) (fraction); higher = more growth
S. pneumoniae D39V = system: S. pneumoniae D39V
How it was run: (§1)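 Fitness expresses the optical density reached at the stationary-phase transition as a fraction of the robust mean of no-drug control wells. It is capped at 1. Measurements were OD595 every 30 min for 14 h at 37 °C after inoculation of 384-well plates at OD595 0.01 (30 µl, or 55 µl for S. pneumoniae), minus the first reading.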

B. subtilis 168 = system: B. subtilis 168
How it was run: as §1

S. aureus Newman = system: S. aureus Newman
How it was run: as §1
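Further: OD595 on entry to stationary phase over no-drug wells; at most 1.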

O=C(O)[C@H]1/C(=C/CO)O[C@@H]2CC(=O)N21 [Clavulanic acid] + C[C@@H](O)[C@H]1C(=O)N2C(C(=O)O)=C(SCCNC=N)C[C@H]12 [Imipenem]
fitness, S. pneumoniae D39V
Conditions	partner 0.005 µg/mL	partner 0.0065 µg/mL	partner 0.01 µg/mL	partner 0.013 µg/mL	partner 0.02 µg/mL	partner 0.026 µg/mL
first compound 0.5 µg/mL	0.976	0.974	0.987	0.968	0.935	0.883
first compound 1 µg/mL	0.887	0.92	0.899	0.891	0.888	0.892
first compound 2 µg/mL	0.737	0.82	0.724	0.791	0.655	0.789

O=C(O)[C@H]1/C(=C/CO)O[C@@H]2CC(=O)N21 [Clavulanic acid] + COc1cc(Cc2cnc(N)nc2N)cc(OC)c1OC [Trimethoprim]
fitness, B. subtilis 168, one replicate
Conditions	partner 0.1 µg/mL	partner 0.2 µg/mL	partner 0.4 µg/mL	partner 1 µg/mL	partner 2 µg/mL
first compound 1.5 µg/mL	0.89	0.757	0.559	0.507	0.392
first compound 3 µg/mL	0.853	0.693	0.537	0.455	0.388
first compound 6 µg/mL	0.728	0.687	0.482	0.421	0.273

fitness, B. subtilis 168
Conditions	first compound 1.5 µg/mL	first compound 3 µg/mL	first compound 6 µg/mL
partner 0.125 µg/mL	0.647	0.618	0.55
partner 0.25 µg/mL	0.511	–	–
partner 0.5 µg/mL	0.505	0.494	0.457

O=C(O)[C@H]1/C(=C/CO)O[C@@H]2CC(=O)N21 [Clavulanic acid] + CCC(C)C1C(=O)NC(=C)C(=O)NC(C(=O)NC(CSCC(C(=O)N1)NC(=O)/C(=C/C)/NC(=O)C(C(C)CC)N)C(=O)NC2C(SCC(NC(=O)CNC(=O)C3CCCN3C2=O)C(=O)NC(CCCCN)C(=O)NC4C(SCC(NC(=O)CNC(=O)C(NC(=O)C(NC(=O)C(NC(=O)CNC4=O)C)CC(C)C)CCSC)C(=O)NC(CC(=O)N)C(=O)NC(CCSC)C(=O)NC(CCCCN)C(=O)NC5C(SCC6C(=O)NC(C(=O)NC(CSC(C(C(=O)N6)NC(=O)C(NC5=O)C)C)C(=O)NC(CO)C(=O)NC(C(C)CC)C(=O)NC(CC7=CN=CN7)C(=O)NC(C(C)C)C(=O)NC(=C)C(=O)NC(CCCCN)C(=O)O)CC8=CN=CN8)C)C)C)CC(C)C [Nisin]
main component drawn
Conditions	fitness
B. subtilis 168, first compound 1.5 µg/mL, partner 0.5 µg/mL	0.814
B. subtilis 168, first compound 1.5 µg/mL, partner 1 µg/mL	0.775
B. subtilis 168, first compound 1.5 µg/mL, partner 2 µg/mL	0.541
B. subtilis 168, first compound 3 µg/mL, partner 0.5 µg/mL	0.797
B. subtilis 168, first compound 3 µg/mL, partner 1 µg/mL	0.769
B. subtilis 168, first compound 3 µg/mL, partner 2 µg/mL	0.595
B. subtilis 168, first compound 6 µg/mL, partner 0.5 µg/mL	0.738
B. subtilis 168, first compound 6 µg/mL, partner 1 µg/mL	0.703
B. subtilis 168, first compound 6 µg/mL, partner 2 µg/mL	0.485
S. pneumoniae D39V, first compound 0.5 µg/mL, partner 0.4275 µg/mL	0.973
S. pneumoniae D39V, first compound 0.5 µg/mL, partner 1.6 µg/mL	0.0053
S. pneumoniae D39V, first compound 0.5 µg/mL, partner 1.71 µg/mL	0.0946
S. pneumoniae D39V, first compound 0.5 µg/mL, partner 3.2 µg/mL	0.0291
S. pneumoniae D39V, first compound 0.5 µg/mL, partner 6.4 µg/mL	0.0063
S. pneumoniae D39V, first compound 1 µg/mL, partner 0.4275 µg/mL	0.982
S. pneumoniae D39V, first compound 1 µg/mL, partner 1.6 µg/mL	0.16
S. pneumoniae D39V, first compound 1 µg/mL, partner 1.71 µg/mL	0.0481
S. pneumoniae D39V, first compound 1 µg/mL, partner 3.2 µg/mL	0.154
S. pneumoniae D39V, first compound 1 µg/mL, partner 6.4 µg/mL	0.16
S. pneumoniae D39V, first compound 2 µg/mL, partner 0.4275 µg/mL	0.929
S. pneumoniae D39V, first compound 2 µg/mL, partner 0.855 µg/mL	0.617
S. pneumoniae D39V, first compound 2 µg/mL, partner 1.6 µg/mL	0.0042
S. pneumoniae D39V, first compound 2 µg/mL, partner 1.71 µg/mL	0.0736
S. pneumoniae D39V, first compound 2 µg/mL, partner 3.2 µg/mL	0.0076
S. pneumoniae D39V, first compound 2 µg/mL, partner 6.4 µg/mL	0.0001

fitness, B. subtilis 168, one replicate, main component drawn
Conditions	partner 1.25 µg/mL	partner 1.6 µg/mL	partner 2.5 µg/mL	partner 3.2 µg/mL	partner 4 µg/mL	partner 5 µg/mL	partner 6.4 µg/mL	partner 8 µg/mL	partner 16 µg/mL
first compound 1.5 µg/mL	0.802	0.697	0.537	0.0178	0.0192	0.0574	0.0673	0.0099	0.0067
first compound 3 µg/mL	0.765	0.733	0.48	0.0108	0.178	0.0615	0.0551	0.0036	0.0134
first compound 6 µg/mL	0.57	0.67	0.182	0.0221	0.117	0.0792	0.0542	0.0002	0

CC1=C(C(=O)O)N2C(=O)[C@@H](NC(=O)[C@H](N)c3ccccc3)[C@H]2SC1 [Cephalexin] + CC1(C)S[C@@H]2[C@H](NC(=O)Cc3ccccc3)C(=O)N2[C@H]1C(=O)O [Penicillin G]
fitness, S. aureus Newman
Conditions	first compound 0.25 µg/mL	first compound 0.5 µg/mL	first compound 1 µg/mL
partner 0.0195 µg/mL	0.891	0.785	0.811
partner 0.039 µg/mL	0.927	0.937	0.908
partner 0.078 µg/mL	0.875	0.897	0.944

CC[C@H]1OC(=O)[C@H](C)[C@@H](O[C@H]2C[C@@](C)(OC)[C@@H](O)[C@H](C)O2)[C@H](C)[C@@H](O[C@@H]2O[C@H](C)C[C@H](N(C)C)[C@H]2O)[C@](C)(O)C[C@@H](C)CN(C)[C@H](C)[C@@H](O)[C@]1(C)O [Azithromycin] + CC1(C)S[C@@H]2[C@H](NC(=O)Cc3ccccc3)C(=O)N2[C@H]1C(=O)O [Penicillin G]
fitness, S. aureus Newman
Conditions	first compound 0.125 µg/mL	first compound 0.25 µg/mL	first compound 0.5 µg/mL
partner 0.0195 µg/mL	0.844	0.729	0.513
partner 0.039 µg/mL	0.822	0.77	0.452
partner 0.078 µg/mL	0.775	0.741	0.411

CNC(C)C1CCC(N)C(OC2C(N)CC(N)C(OC3OCC(C)(O)C(NC)C3O)C2O)O1 (stereo not drawn) [Gentamicin] + CC1(C)S[C@@H]2[C@H](NC(=O)Cc3ccccc3)C(=O)N2[C@H]1C(=O)O [Penicillin G]
fitness, S. aureus Newman, main component drawn
Conditions	first compound 0.375 µg/mL	first compound 0.5 µg/mL	first compound 0.75 µg/mL	first compound 1 µg/mL	first compound 1.5 µg/mL	first compound 2 µg/mL
partner 0.0195 µg/mL	0.836	0.901	0.82	0.937	0.865	0.98
partner 0.039 µg/mL	0.948	0.897	0.914	0.939	0.944	0.96
partner 0.078 µg/mL	0.944	0.842	0.925	0.886	0.918	0.924
